Reference: US20250049957A1, “CSF TRANSPORT PATHWAY FOR DELIVERY OF AGENTS TO INNER EAR” (University of Rochester, priority 2021, published 2025)
Entries after “also recorded” stand apart in the source; their conditions may differ.

What was measured:
[1] = mouse, in vivo
Description: Briefly, mice were anesthetized with a mixture of Ketamine/Xylazine (100 mg/kg, 10 mg/kg, respectively), after depth of anesthesia was confirmed by the cessation of reflexes, the incision area was properly shaved and sterilized with the aid of ethanol 70% swabs (Vitrex Medical A/S Herlev, DK), followed by iodine solution (Povidone Iodine 7.5% Henry Schein, Melville, NY, USA) applicated using cotton swabs. Before the onset of surgery, analgesics were applied, Lidocaine (0.05 ml, 0.2 mg/ml) was applied in the incision site and Buprenorphine (0.05 mg/kg) injected subcutaneously for post-surgical analgesia. After performing the skin incision around the occipital crest, the neck muscles were separated to reveal the CM underneath. […]
Immediately after the CM cannulation procedure, animals were moved to MRI scanner and head movement during scanning was minimized by restraining the animals on an MR-compatible stereotactic holder with ear bars. Body temperature was maintained at 37±0.5° C. with a thermostatically controlled waterbed and monitored, along with the respiratory rate by an MR compatible remote monitoring system (SA Instruments, NY, USA). […] Every 3D-CISS image was calculated as a maximum intensity projection from 4 realigned 3D-TrueFISP volumes with 4 orthogonal phase encoding directions (TR/TE 3.9/1.95 ms, Nex 2, FA 50°, FOV 19.2×12.8×12.8 mm, Matrix 192×128×128, BW 150 kHz). […]

[2] = CT live imaging of CSF tracer after intracisternal infusion, with dispersion model; assay type: in vivo, mouse
Description: During the CM cannulation procedure a custom-made head bar was fixed on the top of the animal skull. The head bar was designed to minimize undesired movements during the image acquisition (Yoshida et al., 2016), and fixed to an animal holder. […] Animal's respiration was monitored by using Biovet software. CT scans were performed with the Vector4CT system (MILabs, Utrecht, Netherlands) and scanning of the entire mouse head was performed in 4.56 min at an isotropic spatial resolution of 20 μm. The time series CT scanning protocol comprised one baseline scan (4.5 min) followed by intracisternal infusion of Omnipaque (350 mg I/ml, 1 μL/min, 10 μL, GE healthcare). Scans continued over 6 measurements (30 min) after intracisternal infusion of Omnipaque.
The time-intensity data was extracted using ITK snap with the ROIs described above after background subtraction and then normalized to maximal cisterna magna intensity. Dimensions of cochlear aqueduct were measured using the #X feature in ITK snap for #four animals. Distances between ROIs were calculated using their spatial coordinates.
To solve the equation (#ref), inventors implemented a simple finite difference scheme in Python (#ref) using NumPy and Scipy (#ref). Estimation of the dispersion coefficient was achieved by minimizing the L2-norm prediction error, using Scipy (#ref) E: […]

| SMILES | Time activity curves for tracer influx in mice lacking aqp4 [1] | Time to reach 50 max [1] | Tracer concentration in scala vestibuli or cochlear nerve (CT) ([2]; during the 30 min of scanning) | Tracer dispersal into scala tympani (CT) ([2]; intracisternal delivery, 30 min of scanning) |
| --- | --- | --- | --- | --- |
| O=C([O-])CN1CCN(CC(=O)[O-])CCN([C@H](CO)[C@H](O)CO)CCN(CC(=O)[O-])CC1.[Gd+3] (racemic) [Gadovist, gadobutrol] | did not differ from wild type animals | significantly higher in the cochlea |  |  |
| CC(=O)N(CC(O)CO)c1c(I)c(C(=O)NCC(O)CO)c(I)c(C(=O)NCC(O)CO)c1I (stereo not shown) [Omnipaque] |  |  | No clear rise; also recorded: no significant tracer arrives | reaches the base and middle region of the scala tympani; also recorded: moves into the base of scala tympani |
